Laboratory results from patent US12497393B2, “β-lactam compound, use thereof and preparation method therefor” (priority 2020, dated 2025).
Values after ≈ are worked out from the molar mass of the structure shown. Like-named read-outs stand apart in the source and are kept apart here.

What was measured:
Experiment in all cases: Antibacterial activity MIC assay (two-fold dilution agar plating)
Assay type in all cases: cell-based
Escherichia coli = details: Escherichia coli, read-out: Minimal Inhibitory Concentration (MIC)
Procedure: (§1) Antibacterial Activity-Evaluating Method (MIC Assay)
(§2) In this study, the compounds of the present invention were tested for their antibacterial activities by using two-fold dilution agar plating method and Denley Multipoint Inoculator A400 according to the guidelines of the CLSI/NCCLS standard. The tested strains were amplified by hydrolyzed casein peptone (Mueller-Hinton Agar) broth and Brain and Heart Infusion. The strains used in this study were bacterial strains that were purchased from ATCC or clinically isolated in Chinese hospitals. Aztreonam, polymyxin or levofloxacin was used as positive control. The drugs were diluted with hydrolyzed casein peptone broth to the desired concentrations including 128.0, 64.0, 32.0, 16.0, 8.0, 4.0, 2.0, 1.0, 0.5, 0.25, 0.125, 0.06 and 0.03 μg/mL, and then placed respectively into each well and mixed thoroughly. After inoculation, the tested strains were incubated for 18 hours at a constant temperature of 35° C., and their growth levels were observed. The drug concentration with no microbial growth in the well was recorded as the lowest Minimal Inhibitory Concentration (MIC).

Shigella flexneri = details: ATCC12022; Shigella flexneri ATCC 12022; read-out: Minimal Inhibitory Concentration (MIC)
Procedure: as §1, §2

Klebsiella Pneumoniae = details: Klebsiella pneumoniae, read-out: Minimal Inhibitory Concentration (MIC)
Procedure: as §1, §2

Proteus vulgaris = details: Proteus vulgaris, ATCC29905, Proteus vulgaris ATCC 29905; read-out: Minimal Inhibitory Concentration (MIC)
Procedure: as §1, §2

Enterobacter aerogenes = details: Klebsiella aerogenes, ATCC13048; Enterobacter aerogenes ATCC 13048; read-out: Minimal Inhibitory Concentration (MIC)
Procedure: as §1, §2

Acinetobacter baumannii = details: Acinetobacter baumannii, read-out: Minimal Inhibitory Concentration (MIC)
Procedure: as §1, §2

Providencia rettgeri = details: Providencia rettgeri, ATCC31052, Providencia rettgeri ATCC 31052; read-out: Minimal Inhibitory Concentration (MIC)
Procedure: as §1, §2

Serratia marcescens = details: ATCC21074; Serratia marcescens ATCC 21074; read-out: Minimal Inhibitory Concentration (MIC)
Procedure: as §1, §2

[1] = test system: Stenotrophomonas maltophilia; details: ATCC13636; Stenotrophomonas maltophilia ATCC 13636; read-out: Minimal Inhibitory Concentration (MIC)
Procedure: as §1, §2

Salmonella typhi = details: Salmonella enterica, TYPHI, read-out: Minimal Inhibitory Concentration (MIC)
Procedure: as §1, §2

Pseudomonas aeruginosa = details: read-out: Minimal Inhibitory Concentration (MIC)
Procedure: as §1, §2

Enterobacter cloacae = details: read-out: Minimal Inhibitory Concentration (MIC)
Procedure: as §1, §2

Proteus mirabilis = details: Proteus mirabilis, ATCC49565, Proteus mirabilis ATCC 49565; read-out: Minimal Inhibitory Concentration (MIC)
Procedure: as §1, §2

Citrobacter freundii = details: ATCC43864; Citrobacter freundii ATCC 43864; read-out: Minimal Inhibitory Concentration (MIC)
Procedure: as §1, §2

[2] = ATCC25922, Escherichia coli ATCC 25922, ESBLs(−)
[3] = ATCC35218, Escherichia coli ATCC 35218, ESBLs(+)
[4] = Escherichia coli 08-85, mcr-1(+)
[5] = Escherichia coli 13-43, mcr-1(+)
[6] = Escherichia coli 13-66, mcr-1(+)
[7] = Escherichia coli 16-1, ESBLs(+)
[8] = Escherichia coli 16-7, ESBLs(−)
[9] = Escherichia coli 17-R28, CRE, NDM-1(+)
[10] = Escherichia coli CDC1001728, NDM-1(+)
[11] = ATCC700603, Klebsiella Pneumoniae ATCC 700603, ESBLs(+)
[12] = ATCCBAA2146, Klebsiella Pneumoniae ATCC BAA-2146, NDM-1(+)
[13] = Klebsiella Pneumoniae 09-20, mcr-1(+)
[14] = Klebsiella Pneumoniae 16-2, ESBLs(−)
[15] = Klebsiella Pneumoniae 16-14, ESBLs(+)
[16] = Klebsiella Pneumoniae 17-R27, CRE
[17] = ATCC19606, Acinetobacter baumannii ATCC 19606
[18] = ATCC27853, Pseudomonas aeruginosa ATCC 27853
[19] = ATCC43560, Enterobacter cloacae ATCC 43560
[20] = Enterobacter cloacae CDC1000654

Structure (SMILES)	MIC (Escherichia coli; [2])	MIC (Escherichia coli; [3])	MIC (Escherichia coli; [4])	MIC (Escherichia coli; [5])	MIC (Escherichia coli; [6])	MIC (Escherichia coli; [7])	MIC (Escherichia coli; [8])	MIC (Escherichia coli; [9])	MIC (Escherichia coli; [10])	MIC (Shigella flexneri)	MIC (Klebsiella Pneumoniae; [11])	MIC (Klebsiella Pneumoniae; [12])	MIC (Klebsiella Pneumoniae; [13])	MIC (Klebsiella Pneumoniae; [14])	MIC (Klebsiella Pneumoniae; [15])	MIC (Klebsiella Pneumoniae; [16])	MIC (Proteus vulgaris)	MIC (Enterobacter aerogenes)	MIC (Acinetobacter baumannii; [17])	MIC (Acinetobacter baumannii; Acinetobacter baumannii 16-16)	further results
C[C@H]1[C@H](NC(=O)/C(=N\OC(C)(C)C(=O)O)c2csc(N)n2)C(=O)N1S(=O)(=O)O [AZN, aztreonam, reference compound]	0.06 µg/mL (≈ 0.138 µM)	≤ 0.03 µg/mL	4 µg/mL (≈ 9.19 µM)	8 µg/mL (≈ 18.4 µM)	8 µg/mL (≈ 18.4 µM)	≤ 0.03 µg/mL	0.06 µg/mL (≈ 0.138 µM)	16 µg/mL (≈ 36.7 µM)	4 µg/mL (≈ 9.19 µM)	0.25 µg/mL (≈ 0.574 µM)	32 µg/mL (≈ 73.5 µM)	> 128 µg/mL	0.25 µg/mL (≈ 0.574 µM)	0.06 µg/mL (≈ 0.138 µM)	4 µg/mL (≈ 9.19 µM)	0.25 µg/mL (≈ 0.574 µM)	≤ 0.03 µg/mL	0.12 µg/mL (≈ 0.276 µM)	32 µg/mL (≈ 73.5 µM)	128 µg/mL (≈ 294 µM)	MIC (Acinetobacter baumannii; Acinetobacter baumannii 16-33): 32 µg/mL (≈ 73.5 µM); MIC (Providencia rettgeri): ≤ 0.03 µg/mL; MIC (Serratia marcescens): 0.12 µg/mL (≈ 0.276 µM); MIC [1]: 32 µg/mL (≈ 73.5 µM); MIC (Salmonella typhi): ≤ 0.03 µg/mL; MIC (Pseudomonas aeruginosa; [18]): 4 µg/mL (≈ 9.19 µM); MIC (Pseudomonas aeruginosa; Pseudomonas aeruginosa 16-11): > 128 µg/mL; MIC (Pseudomonas aeruginosa; Pseudomonas aeruginosa PAO1): 4 µg/mL (≈ 9.19 µM); MIC (Enterobacter cloacae; [19]): ≤ 0.03 µg/mL; MIC (Enterobacter cloacae; [20]): > 128 µg/mL; MIC (Proteus mirabilis): ≤ 0.03 µg/mL; MIC (Citrobacter freundii): 0.12 µg/mL (≈ 0.276 µM)
CC1(C)[C@H](NC(=O)/C(=N\OC2(C(=O)O)CCCC2)c2csc(N)n2)C(=O)N1OS(=O)(=O)O [Compound A-3]	0.25 µg/mL (≈ 0.509 µM)	0.25 µg/mL (≈ 0.509 µM)	0.25 µg/mL (≈ 0.509 µM)	0.5 µg/mL (≈ 1.02 µM)	0.25 µg/mL (≈ 0.509 µM)	0.25 µg/mL (≈ 0.509 µM)	0.5 µg/mL (≈ 1.02 µM)	8 µg/mL (≈ 16.3 µM)	0.5 µg/mL (≈ 1.02 µM)	0.25 µg/mL (≈ 0.509 µM)	1 µg/mL (≈ 2.03 µM)	0.5 µg/mL (≈ 1.02 µM)	0.25 µg/mL (≈ 0.509 µM)	2 µg/mL (≈ 4.07 µM)	0.5 µg/mL (≈ 1.02 µM)	0.25 µg/mL (≈ 0.509 µM)	≤ 0.03 µg/mL	0.5 µg/mL (≈ 1.02 µM)	32 µg/mL (≈ 65.1 µM)	> 64 µg/mL	MIC (Acinetobacter baumannii; Acinetobacter baumannii 16-33): 32 µg/mL (≈ 65.1 µM); MIC (Providencia rettgeri): ≤ 0.03 µg/mL; MIC (Serratia marcescens): 0.5 µg/mL (≈ 1.02 µM); MIC [1]: 4 µg/mL (≈ 8.14 µM); MIC (Salmonella typhi): 0.5 µg/mL (≈ 1.02 µM); MIC (Pseudomonas aeruginosa; [18]): 4 µg/mL (≈ 8.14 µM); MIC (Pseudomonas aeruginosa; Pseudomonas aeruginosa 16-11): 4 µg/mL (≈ 8.14 µM); MIC (Pseudomonas aeruginosa; Pseudomonas aeruginosa PAO1): 2 µg/mL (≈ 4.07 µM); MIC (Enterobacter cloacae; [19]): 0.5 µg/mL (≈ 1.02 µM); MIC (Enterobacter cloacae; [20]): 4 µg/mL (≈ 8.14 µM); MIC (Proteus mirabilis): 0.06 µg/mL (≈ 0.122 µM); MIC (Citrobacter freundii): 0.25 µg/mL (≈ 0.509 µM)
CC1(C)[C@H](NC(=O)/C(=N\OC2(C(=O)O)CCCCC2)c2csc(N)n2)C(=O)N1OS(=O)(=O)O [Compound A-7]	4 µg/mL (≈ 7.91 µM)	1 µg/mL (≈ 1.98 µM)	2 µg/mL (≈ 3.96 µM)	2 µg/mL (≈ 3.96 µM)	2 µg/mL (≈ 3.96 µM)	1 µg/mL (≈ 1.98 µM)	2 µg/mL (≈ 3.96 µM)	64 µg/mL (≈ 127 µM)	2 µg/mL (≈ 3.96 µM)	2 µg/mL (≈ 3.96 µM)	8 µg/mL (≈ 15.8 µM)	8 µg/mL (≈ 15.8 µM)	2 µg/mL (≈ 3.96 µM)	2 µg/mL (≈ 3.96 µM)	2 µg/mL (≈ 3.96 µM)	4 µg/mL (≈ 7.91 µM)	0.25 µg/mL (≈ 0.495 µM)	4 µg/mL (≈ 7.91 µM)	32 µg/mL (≈ 63.3 µM)	> 64 µg/mL	MIC (Acinetobacter baumannii; Acinetobacter baumannii 16-33): 32 µg/mL (≈ 63.3 µM); MIC (Providencia rettgeri): 0.25 µg/mL (≈ 0.495 µM); MIC (Serratia marcescens): 2 µg/mL (≈ 3.96 µM); MIC [1]: 16 µg/mL (≈ 31.6 µM); MIC (Salmonella typhi): 4 µg/mL (≈ 7.91 µM); MIC (Pseudomonas aeruginosa; [18]): 32 µg/mL (≈ 63.3 µM); MIC (Pseudomonas aeruginosa; Pseudomonas aeruginosa 16-11): > 64 µg/mL; MIC (Pseudomonas aeruginosa; Pseudomonas aeruginosa PAO1): 32 µg/mL (≈ 63.3 µM); MIC (Enterobacter cloacae; [19]): 1 µg/mL (≈ 1.98 µM); MIC (Enterobacter cloacae; [20]): 16 µg/mL (≈ 31.6 µM); MIC (Proteus mirabilis): 0.12 µg/mL (≈ 0.237 µM); MIC (Citrobacter freundii): 2 µg/mL (≈ 3.96 µM)
